# Earlier results as cited in patent US12090150B2, “Deuterated analogs of elacridar” (priority 2018, dated 2024).
# What was measured:
# [1] = tested on: P-gp/BCRP pumps located in the GI tract; details: cancer patients
# [2] = tested on: P-gp and BCRP at the blood brain barrier; details: rodents; morphine, amprenavir, imatinib, dasatinib, gefitinib, sorafenib, sunitinib
structure (smiles),measurement,setting,value
"COc1cc2c(cc1OC)CN(CCc1ccc(NC(=O)c3cccc4c(=O)c5cccc(OC)c5[nH]c34)cc1)CC2 [elacridar, 9,10-dihydro-5-methoxy-9-oxo-N-[4-[2-(1,2,3,4-tetrahydro-6,7-dimethoxy-2-isoquinolinyl)ethyl]phenyl]-4-acridine-carboxamide]",oral absorption of coadministered paclitaxel (P-gp substrate) and topotecan (BCRP substrate),[1],improved
same,solubility in water,,practically insoluble in water
same,increase of drug levels in the brain of coadministered pump substrates,[2],some success
